# US20070026408A1, “Materials and methods for analysis of atp-binding cassette transporter gene expression” (priority 2003, published 2007)
# Structures can show the parent of a compound that is named as a salt.
# System: abcB11
# Test: DT1 microarray drug screening, drug-treated HepG2: abcB11
# Type: cell-based, human
# Conditions: HepG2, vinblastine sulfate 25 nM, 8 h, standard 24
# Protocol: The labelled cDNA target preparation was thawed and the 150 μl added to 850 ul hybridisation buffer (500 mM sodium Phosphate pH 6.0, 1% SDS, 1% BSA, 1 mM EDTA) in a 1.5 ml microtube and heated at 95° C. for 10 min.
smiles,measurement,value
"CC[C@]1(O)C[C@@H]2CN(CCc3c([nH]c4ccccc34)[C@@](C(=O)OC)(c3cc4c(cc3OC)N(C)[C@H]3[C@@](O)(C(=O)OC)[C@H](OC(C)=O)[C@]5(CC)C=CCN6CC[C@]43[C@@H]65)C2)C1 [vin, vinblastine sulfate]",relative level of abcB11 gene expression,9.053
